Assay results published in patent US20210038559A1, “CANNABINOIDS AND DERIVATIVES FOR PROMOTING IMMUNOGENICITY OF TUMOR AND INFECTED CELLS” (priority 2018, published 2021).
Where a name gives a salt, the structure may show the parent alone.

Each compound was assayed on MHC-I expression by COLO 205 cells (assay: cells). Conditions: not given.
Type: cell-based, human
Experimental: A panel of synthetic cannabinoids (Cayman Chemical, #9002891) was tested for MHC class I-inducing capability in COLO 205 cells as described above. COLO 205 cells were treated with the compounds at a concentration of 35 μM and evaluated for cell surface MHC class I expression after 48 hours. Cells were harvested, stained with MHC-I mAb W6/32 (Thermo Fisher). MHC-I expression was determined by flow cytometry.
With `CCCCCn1ccc(C(=O)c2cccc3ccccc23)c1` [Example 66, 1-naphthalenyl(1-pentyl-1H-pyrrol-3-yl)-methanone] the “Induction Fold” value was 2.75 Fold.
For `CS(=O)(=O)O.Cc1c(C(=O)c2cccc3ccccc23)c2cccc3c2n1[C@H](CN1CCOCC1)CO3` [Example 379, [(3R)-2,3-dihydro-5-methyl-3-(4-morpholinylmethyl)pyrrolo[1,2,3-de]-1,4-benzoxazin-6-yl]-1-naphthalenyl-methanone, methanesulfonate], the “Induction Fold” value was 0.21 Fold.
For `COC(=O)[C@@H](NC(=O)c1nn(CCCC(C)F)c2ccccc12)C(C)C` (stereo partly drawn) [Example 268, methyl (1-(4-fluoropentyl)-1H-indazole-3-carbonyl)-1-valinate], the “Induction Fold” value was 1.55 Fold.
In the case of `CCCCn1c(C)c(C(=O)c2cccc3ccccc23)c2ccccc21` [Example 122, (1-butyl-2-methyl-1H-indol-3-yl)-1-naphthalenyl-methanone], the “Induction Fold” value is reported as 2.31 Fold.

Same assay, conditions: Homo sapiens, COLO 205, 48 h, MHC-I expression, COLO 205 cells, compounds at 35 μM, 48 hours, flow cytometry (W6/32); read-out: Induction Fold
In the case of `CC(C)CCCCn1cc(C(=O)C2C(C)(C)C2(C)C)c2ccccc21` [Example 225, (1-(5-methylhexyl)-1H-indol-3-yl)(2,2,3,3-tetramethylcyclopropyl)methanone], the fold induction at 35 µM is reported as 1.75.
`CCCCCn1cc(C(=O)c2ccc(CC)c3ccccc23)c2ccccc21` [Example 180, (4-ethyl-1-naphthalenyl)(1-pentyl-1H-indol-3-yl)-methanone] gave a fold induction at 35 µM of 1.93.
`Cc1ccc(C(=O)c2cn(CCCC(C)F)c3ccccc23)c2ccccc12` (stereo not drawn) [Example 145, (1-(4-fluoropentyl)-1H-indol-3-yl)(4-methylnaphthalen-1-yl)methanone] showed a fold induction at 35 µM of 2.16.
With `O=C(Nc1cccc2ccccc12)c1nn(CCCCCF)c2ccccc12` [Example 184, 1-(5-fluoropentyl)-N-1-naphthalenyl-1H-indazole-3-carboxamide] the fold induction at 35 µM was 1.9.
`O=C(c1cn(CCCCCF)c2ccccc12)N1CCN(Cc2ccccc2)CC1` [Example 324, (4-benzylpiperazin-1-yl)(1-(5-fluoropentyl)-1H-indol-3-yl)methanone, monohydrochloride] gave a fold induction at 35 µM of 1.26.
In the case of `CCCCCn1cc(C(=O)NC23CC4CC(CC(C4)C2)C3)c(=O)c2cc(C(C)C)ccc21` [Example 364, 1,4-dihydro-6-(1-methylethyl)-4-oxo-1-pentyl-N-tricyclo[3.3.1.1^3, 7]dec-1-yl-3-quinolinecarboxamide], the fold induction at 35 µM is reported as 0.89.
`CCCCn1cc(C(=O)c2c(C)ccc3ccccc23)c2ccccc21` [Example 22, (1-butyl-1H-indol-3-yl)(2-methylnaphthalen-1-yl)methanone] was tested, and the fold induction at 35 µM was 3.84.
`CCCC(C)n1cc(C(=O)c2cccc3ccccc23)c2ccccc21` (stereo not drawn) [Example 187, naphthalen-1-yl(1-(pentan-2-yl)-1H-indol-3-yl)methanone] gave a fold induction at 35 µM of 1.9.
Work on `CCC(F)CCn1cc(C(=O)Nc2cccc3ccccc23)c2ccccc21` (stereo not drawn) [Example 338, 1-(3-fluoropentyl)-N-(naphthalen-1-yl)-1H-indole-3-carboxamide] yielded a fold induction at 35 µM of 1.19.
Compound `CCCCCCC(C)(C)c1ccc([C@@H]2CCC[C@H](O)C2)c(O)c1` (relative stereo) [Example 353, rel-5-(1,1-dimethylheptyl)-2-[(1R,3S)-3-hydroxycyclohexyl]-phenol] has a fold induction at 35 µM of 1.06.
For `COc1cccc(CC(=O)c2cn(CCC3CCCCC3)c3ccccc23)c1` [Example 42, 1-(1-(2-cyclohexylethyl)-1H-indol-3-yl)-2-(3-methoxyphenyl)ethanone], the fold induction at 35 µM was 3.07.
`CCCCCn1cc(C(=O)Oc2cccc3ccncc23)c2ccccc21` [Example 17, isoquinolin-8-yl 1-pentyl-1H-indole-3-carboxylate] showed a fold induction at 35 µM of 4.11.
`CCCCn1cc(C(=O)c2ccc3ccccc3c2)c2ccccc21` [Example 325, (1-butyl-1H-indol-3-yl)(naphthalen-2-yl)-methanone] showed a fold induction at 35 µM of 1.26.
`C=CCCCn1cc(C(=O)C2C(C)(C)C2(C)C)c2ccccc21` [Example 148, (1-(pent-4-en-1-yl)-1H-indol-3-yl)(2,2,3,3-tetramethylcyclopropyl)methanone] gave a fold induction at 35 µM of 2.14.
Work on `CCCCCn1cc(C(=O)c2cc(OC)cc3ccccc23)c2ccccc21` [Example 234, (3-methoxynaphthalen-1-yl)(1-pentyl-1H-indol-3-yl)methanone] yielded a fold induction at 35 µM of 1.71.
Work on `CC(C)C(C)n1cc(C(=O)c2ccc3ccccc3c2)c2ccccc21` (stereo not drawn) [Example 342, (1-(3-methylbutan-2-yl)-1H-indol-3-yl)(naphthalen-2-yl)methanone] yielded a fold induction at 35 µM of 1.17.
`CCCCCn1cc(C(=O)c2ccc(OC)cc2)c2ccccc21` [Example 129, (4-methoxyphenyl)(1-pentyl-1H-indol-3-yl)methanone] was tested, and the fold induction at 35 µM was 2.27.
For `Cc1ccc(C(=O)c2cn(CCCCCCl)c3ccccc23)c2ccccc12` [Example 189, (1-(5-chloropentyl)-1H-indol-3-yl)(4-methylnaphthalen-1-yl)methanone], the fold induction at 35 µM was 1.89.
`O=C(NCC1CC1)c1cn(CCCCCF)c2ccccc12` [Example 357, N-(cyclopropylmethyl)-1-(5-fluoropentyl)-1H-indole-3-carboxamide] was tested, and the fold induction at 35 µM was 1.03.
With `CCCCCn1cc(C(=O)Cc2cccc(Cl)c2)c2ccccc21` [Example 86, 2-(3-chlorophenyl)-1-(1-pentyl-1H-indol-3-yl)-ethanone] the fold induction at 35 µM was 2.51.
Compound `CCCCCn1cc(C(=O)Oc2ccc3ccncc3c2)c2ccccc21` [Example 274, isoquinolin-7-yl 1-pentyl-1H-indole-3-carboxylate] has a fold induction at 35 µM of 1.52.
In the case of `CC1(C)C(C(=O)c2cn(CCCCCF)c3ccccc23)C1(C)C` [Example 51, (1-(5-fluoropentyl)-1H-indol-3-yl)(2,2,3,3-tetramethylcyclopropyl)methanone], the fold induction at 35 µM is reported as 2.99.

Same assay, conditions: MHC-I expression, COLO 205 cells, compounds at 35 μM, 48 hours, flow cytometry (W6/32)
With `CCCCCCCC(C)(C)c1ccc([C@H]2CCC[C@H](O)C2)c(O)c1` (relative stereo) [Example 301, rel-2-[(1S,3S)-3-hydroxycyclohexyl)]-5-(2-methylnonan-2-yl)phenol] the “Induction Fold” value was 1.41 Fold.
For `CCCCCN1C(=O)C(=NNC(=O)c2ccccc2)c2ccc(OC)cc21` [Example 266, 2Z-(1,2-dihydro-6-methoxy-2-oxo-1-pentyl-3H-indol-3-ylidene)hydrazide benzoic acid], the “Induction Fold” value was 1.55 Fold.
`CCCCCn1nc(C(=O)c2cccc3ccccc23)c2ccccc21` [Example 149, 1-naphthalenyl(1-pentyl-1H-indazol-3-yl)-methanone] was tested, and the “Induction Fold” value was 2.14 Fold.
`COC(=O)[C@@H](NC(=O)c1nn(Cc2ccc(F)cc2)c2ccccc12)C(C)(C)C` [Example 46, N-[[1-[(4-fluorophenyl)methyl]-1H-indazol-3-yl]carbonyl]-3-methyl-1-valine, methyl ester] was tested, and the “Induction Fold” value was 3.02 Fold.
With `COC(=O)[C@H](NC(=O)c1nn(CCCCCF)c2ccccc12)C(C)(C)C` [Example 179, N-[[1-(5-fluoropentyl)-1H-indazol-3-yl]carbonyl]-3-methyl-D-valine, methyl ester] the “Induction Fold” value was 1.94 Fold.
With `COC(=O)[C@@H](NC(=O)c1cn(CC2CCCCC2)c2ccccc12)C(C)C` [Example 229, methyl (1-(cyclohexylmethyl)-1H-indole-3-carbonyl)-1-valinate] the “Induction Fold” value was 1.72 Fold.
In the case of `CCCCCn1cc(C(=O)C23CC4CC(CC(C4)C2)C3)c2ccccc21` [Example 245, (1s,3s)-adamantan-1-yl(1-pentyl-1H-indol-3-yl)methanone], the “Induction Fold” value is reported as 1.66 Fold.
